Data set [1] addresses T1, native human transporter GlyT1 (Homo sapiens, UniProt P48067).
T1 construct: expressing the native human transporter GlyT1; endogenous in cells; host or cells: SK-N-MC (human neuroepithelial cells)
T1 sequence (P48067 1-706): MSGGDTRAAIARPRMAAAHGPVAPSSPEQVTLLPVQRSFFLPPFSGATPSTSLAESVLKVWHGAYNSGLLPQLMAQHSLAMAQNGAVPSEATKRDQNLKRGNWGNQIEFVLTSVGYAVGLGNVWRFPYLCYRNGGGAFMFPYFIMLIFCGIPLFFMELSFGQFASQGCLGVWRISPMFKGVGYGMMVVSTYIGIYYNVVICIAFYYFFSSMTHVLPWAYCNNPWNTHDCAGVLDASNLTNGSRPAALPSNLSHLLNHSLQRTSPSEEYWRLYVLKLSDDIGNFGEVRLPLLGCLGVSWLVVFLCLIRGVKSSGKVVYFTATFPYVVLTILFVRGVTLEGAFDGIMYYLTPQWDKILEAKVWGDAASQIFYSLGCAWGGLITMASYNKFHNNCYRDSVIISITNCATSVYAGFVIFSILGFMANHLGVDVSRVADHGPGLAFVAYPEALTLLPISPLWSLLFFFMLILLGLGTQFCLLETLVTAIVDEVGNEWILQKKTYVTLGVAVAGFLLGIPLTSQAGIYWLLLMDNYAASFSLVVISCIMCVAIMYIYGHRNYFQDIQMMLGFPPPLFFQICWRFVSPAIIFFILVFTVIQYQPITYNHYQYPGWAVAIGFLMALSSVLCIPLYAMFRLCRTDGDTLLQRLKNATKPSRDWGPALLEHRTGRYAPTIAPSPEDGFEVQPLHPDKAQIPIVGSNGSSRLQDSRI
In words: Study of glycine transportation ([14C]glycine uptake) in SK-N-MC cells expressing the native human transporter GlyT1. The class given is cell-based. As to conditions: 10 μM [14C]glycine, 10 min at 37° C., concentration which reduces by 50% the specific uptake of glycine, read-out: CI50 (the source's name). As for the experimental part: Study of Glycine Transportation in SK-N-MC Cells Expressing the Native Human Transporter GlyT1.
The uptake of [^14C]glycine is studied in SK-N-MC cells (human neuroepithelial cells) expressing the native human transporter GlyT1 by measuring the radioactivity incorporated in the presence or absence of the test compound. The cells are cultured as a monolayer for 48 hours in plates pretreated with 0.02% fibronectin. On the day of the experiment, the culture medium is removed and the cells are washed with Krebs-HEPES (4-(2-hydroxyethyl)piperazine-1-ethanesulphonic acid) buffer at pH 7.4. After preincubation for 10 minutes at 37° C. in the presence either of buffer (control batch) or of test compound at various concentrations or of 10 mM of glycine (determination of the non-specific uptake), 10 μM of [^14C]glycine (specific activity 112 mCi/mmol) are subsequently added. Incubation is continued for 10 min at 37° C. and the reaction is halted by washing twice with pH 7.4 Krebs-HEPES buffer. The radioactivity incorporated by the cells is then estimated after adding 100 μl of liquid scintillant and stirring for 1 h. Counting is carried out on a Microbeta Tri-Lux™ counter. The effectiveness of the compound is determined by the IC50, the concentration of the compound which reduces by 50% the specific uptake of glycine, defined by the difference in radioactivity incorporated by the control batch and the batch which received the 10 mM glycine.

Structures are written as SMILES. Structures can show the parent of a compound that is named as a salt.

As usually defined, the melting point is the temperature, or range, at which the solid turns liquid.

`O=C(NC(c1ccccc1)C12CCCC(CN1)C2)c1nccc(C(F)(F)F)c1Cl` (racemic) (as salt: HCl) [Compound 3, N-[(6-Azabicyclo[3.2.1]oct-5-yl)phenylmethyl](3-chloro-4-trifluoromethyl)pyridine-2-carboxamide] yielded a melting point of 158 to 160 °C.

`CSc1ncccc1C(=O)NC(c1ccc(F)cc1)C12CCCC(CN1)C2` (racemic) (as salt: HCl) [Compound 8, N-[(6-Azabicyclo[3.2.1]oct-5-yl)(4-fluorophenyl)methyl]-2-methylsulfanyl-nicotinamide] yielded a melting point of 234 to 236 °C.

On to `CSc1ncccc1C(=O)NC(c1cccc(C)c1)C12CCCC(CN1)C2` (racemic) (as salt: HCl) [Compound 10, N-[(-6-Azabicyclo[3.2.1]oct-5-yl)-m-tolylmethyl]-2-methylsulfanylnicotinamide], for which the melting point is 205 to 207 °C.

Turning to `O=C(NC(c1cccc(C(F)(F)F)c1)C12CCCC(CN1)C2)c1nccc(C(F)(F)F)c1Cl` (racemic) (as salt: HCl) [Compound 11, N-[(6-Azabicyclo[3.2.1]oct-5-yl)(3-trifluoromethylphenyl)methyl](3-chloro-4-trifluoromethyl)pyridine-2-carboxamide], the melting point lay in the range of 250.4 to 251.4 °C.

`O=C(NC(c1ccccc1)C12CCCC(CN1)C2)c1cc(Cl)sc1Cl` (racemic) [Compound 1, N-[(6-Azabicyclo[3.2.1]oct-5-yl)phenylmethyl](2,5-dichloro)thiophene-3-carboxamide] registered a melting point of 95 to 97 °C.

For the compound `CSc1ncccc1C(=O)NC(c1ccccc1)C12CCCC(CN1)C2` (racemic) [Compound 2, N-[(6-azabicyclo[3.2.1]oct-5-yl)phenylmethyl](2-methylsulphanyl)nicotinamide], in data set [1], the IC50 amounted to 0.14 µM.

On to `O=C(NC(c1ccccc1)C12CCCC(CN1)C2)c1nccc(C(F)(F)F)c1Cl` (racemic) [Compound 3, N-[(6-Azabicyclo[3.2.1]oct-5-yl)phenylmethyl](3-chloro-4-trifluoromethyl)pyridine-2-carboxamide], for which, in data set [1], the IC50 came to 0.22 µM.

On to `Cn1cnc(C(=O)NC(c2ccccc2)C23CCCC(CN2)C3)c1` (racemic) [Compound 7, N-[(6-Azabicyclo[3.2.1]oct-5-yl)phenylmethyl](1-methyl)-1H-imidazole-4-carboxamide], for which the melting point lay within 150 to 152 °C.

On to `CSc1ncccc1C(=O)NC(c1ccc(F)cc1)C12CCCC(CN1)C2` (racemic) [Compound 8, N-[(6-Azabicyclo[3.2.1]oct-5-yl)(4-fluorophenyl)methyl]-2-methylsulfanyl-nicotinamide], for which, in data set [1], the IC50 worked out at 0.13 µM.

For `O=C(NC(c1cccc(C(F)(F)F)c1)C12CCCC(CN1)C2)c1nccc(C(F)(F)F)c1Cl` (racemic) [Compound 11, N-[(6-Azabicyclo[3.2.1]oct-5-yl)(3-trifluoromethylphenyl)methyl](3-chloro-4-trifluoromethyl)pyridine-2-carboxamide], in data set [1], the IC50 worked out at 0.17 µM.

With `O=C(NC(c1ccccc1)C12CCCC(CN1)C2)c1cccc2c1ccn2Cc1ccccc1` (centres unmarked) [Compound 6, [(6-Azabicyclo[3.2.1]oct-5-yl)phenylmethyl](1-benzyl)-1H-indole-4-carboxamide], the IC50 in data set [1] worked out at 0.61 µM.

The values are drawn from US20120029027A1, “N-[(6-AZA-BICYCLO[3.2.1]OCT-5-YL)-ARYL-METHYL]-HETEROBENZAMIDE DERIVATIVES, PREPARATION THEREOF, AND THERAPEUTIC USE OF SAME” (SANOFI, priority 2009, published 2012).
